Converted amounts (≈) assume the structure as drawn. Each block holds one molecule with its values, some of them ahead of it.
Experiments:
Rattus norvegicus [1] = test: Gastric ulcerogenic activity in ethanol-induced rat model assessed as reduction in gastric lesion at 10 mg/kg, po relative to control; assay type: functional; design: scale not given: the % may be the effect or the level left
Rattus norvegicus [2] = test: Gastric ulcerogenic activity in ethanol-induced rat model assessed as reduction in gastric lesion at 5 mg/kg, po relative to control; assay type: functional; design: scale not given: the % may be the effect or the level left
[3] = target: T1, Gastrin/cholecystokinin type B receptor (Homo sapiens, UniProt P32239); test: Antagonist activity at human CCKBR; assay type: functional
T1 sequence (P32239 whole entry): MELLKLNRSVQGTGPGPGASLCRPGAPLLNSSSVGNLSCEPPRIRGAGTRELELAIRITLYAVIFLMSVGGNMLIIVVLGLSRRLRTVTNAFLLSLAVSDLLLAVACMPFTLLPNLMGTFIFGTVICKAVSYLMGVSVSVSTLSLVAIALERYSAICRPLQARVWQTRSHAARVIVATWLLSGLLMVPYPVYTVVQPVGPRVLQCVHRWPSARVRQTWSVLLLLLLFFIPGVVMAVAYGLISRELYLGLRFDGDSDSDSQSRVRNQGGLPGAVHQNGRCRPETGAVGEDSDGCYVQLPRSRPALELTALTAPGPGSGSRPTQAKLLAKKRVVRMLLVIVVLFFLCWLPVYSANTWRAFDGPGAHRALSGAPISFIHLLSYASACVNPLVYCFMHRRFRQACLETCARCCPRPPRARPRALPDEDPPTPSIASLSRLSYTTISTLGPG

Mus musculus = test: Anti-ulcerogenic activity in ethanol-induced gastric ulcer mouse model assessed as reduction in ulcer formation at 350 mg/kg; assay type: functional; design: scale not given: the % may be the effect or the level left
Rattus norvegicus [4] = test: Gastric ulcerogenic activity in ethanol-induced rat model assessed as reduction in mucosal damage at 50 mg/kg, po relative to control; assay type: functional; design: scale not given: the % may be the effect or the level left
Rattus norvegicus [5] = test: Protection against stress-induced Wistar rat model assessed as inhibition of gastric lesion at 500 ug/kg, po measured after 6 hrs relative to control; assay type: functional; design: scale not given: the % may be the effect or the level left
[6] = Inhibition of Hydrogen potassium ATPase (unknown origin); design: species or system Homo sapiens
[7] = target: T2, Polyunsaturated fatty acid lipoxygenase ALOX15 (Homo sapiens, UniProt P16050); test: Inhibition of 15-LOX (unknown origin)
T2 sequence (P16050 whole entry): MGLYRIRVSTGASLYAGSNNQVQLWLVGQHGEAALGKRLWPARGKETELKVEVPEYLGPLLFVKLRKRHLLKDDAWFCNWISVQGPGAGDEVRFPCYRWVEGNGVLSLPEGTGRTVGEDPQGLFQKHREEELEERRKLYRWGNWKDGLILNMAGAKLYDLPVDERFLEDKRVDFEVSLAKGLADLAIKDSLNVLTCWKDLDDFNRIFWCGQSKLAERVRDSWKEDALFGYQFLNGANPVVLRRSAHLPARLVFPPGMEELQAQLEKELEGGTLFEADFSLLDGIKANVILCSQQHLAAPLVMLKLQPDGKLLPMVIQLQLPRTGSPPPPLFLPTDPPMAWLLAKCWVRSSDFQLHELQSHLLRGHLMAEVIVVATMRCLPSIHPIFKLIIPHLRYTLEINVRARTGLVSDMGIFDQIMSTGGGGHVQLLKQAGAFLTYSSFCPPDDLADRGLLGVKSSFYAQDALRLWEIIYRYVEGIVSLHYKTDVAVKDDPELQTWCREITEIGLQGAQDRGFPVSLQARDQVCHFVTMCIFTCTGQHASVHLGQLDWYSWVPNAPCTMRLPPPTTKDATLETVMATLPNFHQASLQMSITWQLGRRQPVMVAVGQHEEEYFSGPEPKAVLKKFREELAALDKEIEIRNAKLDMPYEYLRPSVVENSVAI

[8] = Acute toxicity in po dosed mouse assessed as lethal dose; assay type: organism-based; conditions: in vivo
Helicobacter pylori [9] = test: Antibacterial activity against Helicobacter pylori NCTC 11637 assessed as reduction in bacterial growth incubated for 24 hrs by broth micro-dilution method; assay type: functional
Helicobacter pylori [10] = test: Antibacterial activity against Helicobacter pylori ATCC 43504 assessed as reduction in bacterial growth incubated for 24 hrs by broth micro-dilution method; assay type: functional

Compound: CCc1c(O)c(O)c2c(c1O)C(=O)C(O)=C(O)C2=O
Activity (Rattus norvegicus [1]): 75.5%
Activity (Rattus norvegicus [2]): 73.51%

IC50 [3]: 31.9 µM
Compound: CCCc1ccc([C@H]2N[C@@H](C(=O)OC)Cc3c2[nH]c2ccccc32)cc1
Activity (Mus musculus): 81.2%
Activity (Rattus norvegicus [4]): 81.2%

Compound: O=C(CSc1nc2ccccc2[nH]1)n1nc(Nc2ccc(O)cc2)cc1-c1ccccc1
Activity (Rattus norvegicus [5]): 83.1%

IC50 [6]: 42.41 µg/mL (≈ 151 µM)
IC50 [7]: 8.15 µM
Compound: Clc1ccc(-c2cc(-c3ccco3)no2)c(Cl)c1

Compound: COc1cc(/C=N/NC(=O)Cc2ccccc2Nc2c(Cl)cccc2Cl)cc(OC)c1O
LD50 [8]: 168 mg/kg

MIC (Helicobacter pylori [9]): 4 µg/mL (≈ 24.6 µM)
MIC (Helicobacter pylori [10]): 6 µg/mL (≈ 37 µM)
Compound: C=CCS[S+]([O-])CC=C (stereo unspecified) [ALLICIN]

From ChEMBL document CHEMBL5550142, “From lab to nature: Recent advancements in the journey of gastroprotective agents from medicinal chemistry to phytotherapy” (Eur J Med Chem, 2024)
